Assay results published in patent publication US7834179B2, “Spiroindolinone derivatives” (Hoffmann-La Roche Inc., priority 2007, dated 2010).

target: interaction between p53 and MDM2 proteins (Homo sapiens, UniProt Q00987); experiment: HTRF assay of inhibition of p53-MDM2 interaction (GST-MDM2 / biotinylated p53 peptide); format: binding; conditions: recombinant GST-tagged MDM2 and biotinylated p53 peptide, 37° C. for 1 h
Procedure: The ability of the compounds to inhibit the interaction between p53 and MDM2 proteins was measured by an HTRF (homogeneous time-resolved fluorescence) assay in which recombinant GST-tagged MDM2 binds to a peptide that resembles the MDM2-interacting region of p53 (Lane et al.). Binding of GST-MDM2 protein and p53-peptide (biotinylated on its N-terminal end) is registered by the FRET (fluorescence resonance energy transfer) between Europium (Eu)-labeled anti-GST antibody and streptavidin-conjugated Allophycocyanin (APC).
Test is performed in black flat-bottom 384-well plates (Costar) in a total volume of 40 uL containing: 90 nM biotinylate peptide, 160 ng/ml GST-MDM2, 20 nM streptavidin-APC (PerkinElmerWallac), […] Eu-labeled anti-GST-antibody (PerkinElmerWallac), 0.2% bovine serum albumin (BSA), 1 mM dithiothreitol (DTT) and 20 mM Tris-borate seine (TBS) buffer as follows: Add 10 uL of GST-MDM2 (640 ng/ml working solution) in reaction buffer to each well. Add 10 uL diluted compounds (1:5 dilution in reaction buffer) to each well, mix by shaking. Add 20 uL biotinylated p53 peptide (180 nM working solution) in reaction buffer to
each well and mix on shaker. Incubate at 37° C. for 1 h. Add 20 uL streptavidin-APC and Eu-anti-GST antibody mixture (6 nM Eu-anti-GST and 60 nM streptavidin-APC working solutions), in TBS buffer with 0.2% BSA, shake at room temperature for 30 minutes and read using a TRF-capable plate reader at 665 and 615 nm (Victor 5, Perkin ElmerWallac). If not specified, the reagents were purchased from Sigma, Chemical Co.

interaction between p53 and MDM2 proteins, sequence (Q00987 whole entry): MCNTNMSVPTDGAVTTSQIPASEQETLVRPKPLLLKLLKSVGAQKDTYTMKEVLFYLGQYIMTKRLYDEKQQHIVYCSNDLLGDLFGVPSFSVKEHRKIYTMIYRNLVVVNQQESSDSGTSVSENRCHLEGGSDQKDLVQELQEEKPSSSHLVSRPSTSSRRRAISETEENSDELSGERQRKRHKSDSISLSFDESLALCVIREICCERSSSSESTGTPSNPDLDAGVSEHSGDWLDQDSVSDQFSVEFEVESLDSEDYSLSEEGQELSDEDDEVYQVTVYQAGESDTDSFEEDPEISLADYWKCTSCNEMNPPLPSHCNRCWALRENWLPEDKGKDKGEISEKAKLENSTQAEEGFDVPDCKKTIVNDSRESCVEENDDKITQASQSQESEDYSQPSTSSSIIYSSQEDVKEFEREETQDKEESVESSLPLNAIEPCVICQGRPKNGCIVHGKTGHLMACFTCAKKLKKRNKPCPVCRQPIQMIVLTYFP

| Compound | IC50 |
| --- | --- |
| C=C(CC)[C@H]1N2CC(=O)N(CCCN(C)C)N=C2C[C@@H](c2cccc(Cl)c2)[C@]12C(=O)Nc1cc(Cl)ccc12 (racemic) [Example 5b, (6′R, 3R, 8′S)-6-chloro-8′-(3-chlorophenyl)-2′-(3-dimethylaminopropyl)-6′-(1-methylene-propyl)-6′,7′,8′,9′-tetrahydro spiro[3H-indole-3,7′-(2H-pyrido[2,1-c][1,2,4]triazine)]-2,3′(1H)-dione] | 100 nM |
| C=C(CC)[C@H]1N2CC(=O)N(CC(=O)NCCO)N=C2C[C@@H](c2cccc(Cl)c2)[C@]12C(=O)Nc1cc(Cl)ccc12 [Example 11c, (6′R, 3R, 8′S)-6-chloro-8′-(3-chlorophenyl)-2′-[(2-hydroxyethylamino)carbonyl-methyl]-6′-(1-methylene-propyl)-6′,7′,8′,9-tetrahydro spiro[3H-indole-3,7′-(2H-pyrido[2,1-c][1,2,4]triazine)]-2,3′(1H)-dione] | 293 nM |
| C=C(CC)[C@H]1N2CC(=O)N(CCOC(C)=O)N=C2C[C@@H](c2cccc(Cl)c2)[C@]12C(=O)Nc1cc(Cl)ccc12 (racemic) [Example 7b, (6′R, 3R, 8′S)-2′-(2-acetoxyethyl)-6-chloro-8′-(3-chlorophenyl)-6′-(1-methylene-propyl)-6′,7′,8′,9′-tetrahydro spiro[3H-indole-3,7′-(2H-pyrido[2,1-c][1,2,4]triazine)]-2,3′(1H)-dione] | 890 nM |
| C=CCOc1ccc(I)cc1[C@H]1N2CC(=O)N(C)N=C2C[C@@H](c2cccc(Cl)c2)[C@]12C(=O)Nc1cc(Cl)ccc12 (racemic) [Example 18g, (6′R, 3R, 8′S)-6′-(2-allyloxy-5-iodo-phenyl)-6-chloro-8′-(3-chlorophenyl)-2′-methyl-6′,7′,8′,9′-tetrahydro spiro[3H-indole-3,7′-(2H-pyrido[2,1-c][1,2,4]triazine)]-2,3′(1H)-dione] | 272 nM |
| Cc1ccc(F)cc1[C@H]1N2CC(=O)N(C)N=C2C[C@@H](c2cccc(Cl)c2)[C@]12C(=O)Nc1cc(Cl)ccc12 (racemic) [Example 1i, (6′R, 3R, 8′S)-6-chloro-8′-(3-chlorophenyl)-6′-(5-fluoro-2-methylphenyl)-2′-methyl-6′,7′,8′,9′-tetrahydro spiro[3H-indole-3,7′-(2H-pyrido[2,1-c][1,2,4]triazine)]-2,3′(1H)-dione] | 191 nM |
